Results: patent publication US12048679B2, “P53-destabilizing protein associated with proto-oncogene stemness as a therapeutic target and inhibitors thereof for use in treatment of cancer” (University of Southern California, priority 2021, dated 2024)
Entries after “also recorded” stand apart in the source; their conditions may differ.

What was measured:
[1] = tested on: NOTCH1 (NICD level) in CD133(+) or (−) TICs; assay: NOTCH1 processing: NICD produced after EDTA and DAPT treatment, Western blot; type: cell-based; conditions: 20 μM DAPT (4 h) with 5 mM EDTA (20 min), CD133-positive and negative TICs
Procedure: FIGS. 1M and 1N depict that TBC1D15 affects NOTCH1 processing. • (1M) Western blot analysis for expression of endogenous NOTCH1 and N1ΔE-myc tag in CD133-positive and negative TICs, transfected with N1ΔE-FL and N1ΔE-ΔPEST and treated with vehicle or 20 μM DAPT (for 4 h), and 5 mM EDTA (for 20 min). • (1N) Western blot analysis for endogenous NOTCH1 and N1ΔE-myc tag in CD133-positive and negative TICs, transfected with N1ΔE-FL, N1ΔE-ΔPEST, and N1ΔE-V1745L (inhibition of gamma-secretase cleavage) and treated with vehicle or 20 μM DAPT.
Pin1 is known to promote tumor formation by binding to the NOTCH/NICD STR domain and regulating its activity. To determine how TBC1D15 affects NOTCH1 activity, we tested whether it regulates NOTCH1 processing through a combination of a disintegrin and metalloproteinase (ADAM) 17 and γ-secretase. We overexpressed a membrane-tethered, ligand-independent wild type NOTCH1, a NOTCH1 derivative [NΔE, that is constitutively cleaved by γ-secretase, releasing active NICD (Rustighi et al., EMBO Mol Med 6, 99-119. 10.1002/emmm.201302909)], NΔE-ΔPEST, and NΔE-V1745L in CD133(+) or (−) TICs. We then analyzed the effects of TBC1D15 on endogenous NOTCH1 processing by measuring the amount of NICD produced after ethylenediaminetetraacetic acid (EDTA) and DAPT treatment in vitro.

[2] = molecular target: T1, TBC1D15-NOTCH interaction (Homo sapiens, UniProt Q8TC07); assay: Fluorescence polarization assay of FITC-tagged NOTCH1 PEST/STR domain peptide with recombinant TBC1D15; type: binding; conditions: FIG. 7C left
T1 sequence (Q8TC07 1-691): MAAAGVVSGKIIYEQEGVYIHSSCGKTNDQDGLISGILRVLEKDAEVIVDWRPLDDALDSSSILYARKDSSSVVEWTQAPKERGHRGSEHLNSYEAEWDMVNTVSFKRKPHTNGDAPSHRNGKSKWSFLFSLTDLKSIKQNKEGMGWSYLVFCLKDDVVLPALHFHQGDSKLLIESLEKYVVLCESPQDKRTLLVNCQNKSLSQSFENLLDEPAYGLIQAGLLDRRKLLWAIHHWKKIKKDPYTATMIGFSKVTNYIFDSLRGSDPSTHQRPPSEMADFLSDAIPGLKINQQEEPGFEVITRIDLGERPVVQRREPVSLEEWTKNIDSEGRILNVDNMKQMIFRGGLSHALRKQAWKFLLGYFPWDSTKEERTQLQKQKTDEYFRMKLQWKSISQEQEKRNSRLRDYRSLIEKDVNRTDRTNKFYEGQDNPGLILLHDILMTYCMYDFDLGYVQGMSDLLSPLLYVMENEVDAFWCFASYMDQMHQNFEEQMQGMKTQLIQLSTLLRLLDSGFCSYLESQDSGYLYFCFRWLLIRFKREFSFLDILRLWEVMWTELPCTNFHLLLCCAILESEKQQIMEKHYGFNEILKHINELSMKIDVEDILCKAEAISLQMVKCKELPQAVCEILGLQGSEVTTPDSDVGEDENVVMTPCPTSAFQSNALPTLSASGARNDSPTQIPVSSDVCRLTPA
From the text: FIGS. 7A-7G depict that activated NOTCH can be targeted by small molecule inhibitors. • (7A) Analyses of 3D structure of TBC1D15-NOTCH1 interaction identified TBC1D15 N terminal region docking with a.a.1805-2113 of NOTCH1. […] See SEQ ID NOs:6-12 and 1, as depicted. Both were labeled with FITC and used with recombinant TBC1D15 for fluorescence polarization assay. The mutant served as a negative control. […] HA-NUMB-3D is HA-tagged phosphor-mimetic mutant of NUMB protein wherein three serine resides of phosphorylation sites are all replaced with phosphor-mimetic amino acid, D (aspartic acid), to have constitutively phosphorylated status of NUMB protein that reduce the binding ability between NOTCH and NUMB. […]
In some embodiments, an inhibitor of TBC1D15 is a compound that inhibits binding of TBC1D15 with NOTCH, or inhibits the interaction between TBC1D15 and NOTCH. […] In yet another aspect, the inhibitor of TBC1D15 can be identified through a fluorescence polarization assay, wherein a fluorophore-labeled, binding domain of NOTCH1 (e.g., the STR domain or the PEST domain, or a peptide fragment thereof, within NICD) would have an increased fluorescence polarization (FP) when it is non-covalently bound to TBC1D15, as depicted in FIG. 7B, or a decreased FP when it is not bound to TBC1D15 due to the presence of an inhibitor of TBC1D15. […]

[3] = tested on: CD133-positive TICs / CD133+ Huh7 cells; assay: Viability screening, CD133-positive cells; type: cell-based; conditions: FIG. 7C middle
[4] = tested on: CD133-negative TICs / CD133− Huh7 cells; assay: Viability screening, CD133-negative control cells; type: cell-based; conditions: FIG. 7C middle
primary hepatocytes = assay: Viability of primary hepatocytes; type: cell-based; conditions: FIG. 7C middle
From the text: (§1) FIGS. 7A-7G depict that activated NOTCH can be targeted by small molecule inhibitors. • (7A) Analyses of 3D structure of TBC1D15-NOTCH1 interaction identified TBC1D15 N terminal region docking with a.a.1805-2113 of NOTCH1. […] See SEQ ID NOs:6-12 and 1, as depicted. Both were labeled with FITC and used with recombinant TBC1D15 for fluorescence polarization assay. The mutant served as a negative control. […] HA-NUMB-3D is HA-tagged phosphor-mimetic mutant of NUMB protein wherein three serine resides of phosphorylation sites are all replaced with phosphor-mimetic amino acid, D (aspartic acid), to have constitutively phosphorylated status of NUMB protein that reduce the binding ability between NOTCH and NUMB. […] We then tested the therapeutic efficacy of the Inhibitor A in the PDX model of HCC. When the two oncogenic targets were restored by use of AAV vector-mediated co-transduction of both activated N1ICD and phosphormimetic NUMB, the tumor-killing effect of Inhibitor A was negated. Inhibitor A's tumor killing effects are largely dependent upon the inhibition of NOTCH activation and suppressing NUMB phosphorylation status.

[5] = tested on: HEY1-CFP reporter (NOTCH-CFP); assay: HEY1-CFP (NOTCH-CFP) reporter in Huh7 cell line, FACS; type: cell-based; conditions: FIG. 7C right
NANOG-GFP reporter = NANOG-GFP reporter in Huh7 cell line, FACS; type: cell-based; conditions: FIG. 7C right
dsRed-labeled TICs = assay: Tumor growth of dsRed-labeled TICs transplanted subcutaneously into NSG mice; type: in vivo; conditions: for tumors with fluorescence emission (dsRed imaging): FIG. 7E
From the text: as §1
We tested the therapeutic efficacy of Inhibitor A in the patient-derived xenograft (PDX) model of HCC. […] A separate pharmacokinetic study was conducted at three doses (10, 20, 40 mg/kg) administered i.p. into NSG mice to determine blood and tissue levels of the Inhibitor and tissue histology. From these studies, we assessed pharmacokinetic, toxicity, and efficacy data to select an optimal dosing scheme.

patient HCC = assay: Patient-derived xenograft (PDX) model of HCC in NSG mice; type: in vivo
From the text: as §1
PDX mice were treated with the optimum dosing schedule. We monitored tumor sizes weekly three weeks post-transplantation for a total of 4 weeks (until the end of week 7). (If the tumor size reaches a diameter of ≥1.5 cm before 7 wk, we euthanized the mice per the IACUC guideline for tumor-bearing mice.) Our prior experience with the untreated HCC PDX model is 5-7 weeks are needed to generate tumors of the desired size (FIG. 7F). […]
To test the therapeutic efficacy of the new inhibitor for its effect on TBC1D15-NICD interaction, we employed a true patient-derived xenograft (PDX) HCC model (FIG. 7F). We determined if newly identified small molecule inhibitors of the TBC1D15-NICD interaction would prevent tumor growth in the HCC PDX mouse model and specifically if this therapeutic effect was negatively affected by NICD expression, NUMB-3D expression, or the co-expression of NICD and NUMB-3D.

[6] = tested on: p53, N1ICD and NANOG protein levels; assay: Immunoblots of xenograft tumors; type: in vivo, NSG mice; conditions: Inhibitor A-treated xenograft tumors, FIG. 7G
From the text: as §1
PDX mice were treated with the optimum dosing schedule. We monitored tumor sizes weekly three weeks post-transplantation for a total of 4 weeks (until the end of week 7). (If the tumor size reaches a diameter of ≥1.5 cm before 7 wk, we euthanized the mice per the IACUC guideline for tumor-bearing mice.) Our prior experience with the untreated HCC PDX model is 5-7 weeks are needed to generate tumors of the desired size (FIG. 7F). Experimental animals were euthanized at the end of the seven weeks study period and all tumor tissues were collected for histology for tumor characterization. Immunoblots were used to detect levels of for NANOG, TBC1D15, NICD, HES1 or HEY, CD133, p53, NUMB, and pS265-NUMB (FIG. 7G). Immunohistochemistry analysis was performed to monitor the expression of CD133, NANOG, p53, and Ki67.

Row | SMILES | effect on NICD level [1] | inhibition of NOTCH-TBC1D15 interaction [2] | toxicity to CD133-positive cells [3] | toxicity to CD133-negative cells [4] | toxicity to primary hepatocytes (primary hepatocytes) | NOTCH-CFP / HEY1 promoter reporter activity [5] | NANOG-GFP / NANOG promoter reporter activity (NANOG-GFP reporter) | tumors with fluorescence emission (dsRed imaging) (dsRed-labeled TICs; 10 mg/kg dose) | inhibition of tumor growth (dsRed-labeled TICs; 40 mg/kg i.p. 5 times a week) | effect on tumor growth (dsRed-labeled TICs; dose series, NSG mice with dsRed-labeled TICs, FIG. 7D) | tumors with fluorescence emission (dsRed imaging) (dsRed-labeled TICs; doses higher than 10 mg/kg) | growth suppression of patient HCC after N1ICD and HA-NUMB-3D co-transduction (patient HCC; HCC tissues infected with AAV vector delivering N1ICD and HA-NUMB-3D before transplantation) | therapeutic effect under NICD overexpression (patient HCC; NICD overexpression) | growth of patient HCC transplanted into NSG mice (patient HCC; PDX model, FIG. 7F) | N1ICD protein level in xenograft tumors [6] | NANOG protein level in xenograft tumors [6] | p53 protein level in xenograft tumors [6]
1 | C[C@H](NC(=O)Cc1cc(F)cc(F)c1)C(=O)N[C@H](C(=O)OC(C)(C)C)c1ccccc1 [DAPT, N—[N-(3,5-Difluorophenacetyl)-L-alanyl]-S-phenylglycine t-butyl ester] | no observed effect on NICD level | – | – | – | – | – | – | – | – | – | – | – | – | – | – | – | –
2 | O=C(O)CCC/C=C\C[C@@H]1[C@@H](CC[C@@H](O)CCc2ccccc2)[C@H](O)C[C@@H]1O [Inhibitor A, (5Z,9α, 11α, 15R)-9,11,15-Trihydroxy-17-phenyl-18,19,20-trinor-prost-5-en-1-oic acid] | – | effectively blocked the NOTCH-TBC1D15 interaction; also recorded: suppressed interaction between TBC1D15 and NICD; also recorded: blocked NOTCH1/3-TBC1D15 interactions | selectively killed CD133 positive TICs; also recorded: selectively kills CD133^+ Huh7 cells | not CD133^− Huh7 cells | not CD133^− Huh7 cells or primary hepatocytes | reduced HEY1 and NANOG promoter activities; also recorded: abrogates NOTCH-CFP and NANOG-GFP reporter activities | reduced HEY1 and NANOG promoter activities; also recorded: abrogates NOTCH-CFP and NANOG-GFP reporter activities | Tumors with fluorescence emission were detected | significant inhibition of tumor growth | dose-dependent inhibitory effect | not in those treated with higher doses | this effect largely diminished | NICD overexpression blocked the therapeutic effect | suppressed the growth of patient HCC | reduced N1ICD and NANOG protein levels | reduced N1ICD and NANOG protein levels | elevated p53 protein level
